Results taken from patent US20230085307A1, “PYRIDAZINONE COMPOUND AND HERBICIDE” (NISSAN CHEMICAL CORPORATION, priority 2019, published 2023).

Test system: rice flat sedge
Test: Test Example 3: herbicidal effect by foliage application, Wagner pot (Table 18, symbol E)
Type: in vivo, rice flat sedge (Cyperus iria)
Details: 320 g/ha
Outline: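 Plants were sown in alluvial soil held under 0.1–0.5 cm standing water and grown 14 days in a greenhouse at 25–30 °C. An emulsifiable formulation, water-diluted to the set dose, was then sprayed onto the foliage, and effects were scored three weeks later using previously defined criteria.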

Row | SMILES | herbicidal effect on E (rice flat sedge), rating 0-5
1 | C=CCC(C)Oc1ccc(-c2sc3ccccc3c2-c2c(O)c(C)nn(C)c2=O)cc1 (racemic) [1-213] | 3 (Herbicidal rate of 40% or more and less than 70%)
2 | COCC(C)Oc1ccc(-c2sc3ccccc3c2-c2c(O)c(C)nn(C)c2=O)cc1 (racemic) [1-228] | 4 (Herbicidal rate of 70% or more and less than 90%)
3 | CCC(COc1ccc(-c2sc3ccccc3c2-c2c(O)c(C)nn(C)c2=O)cc1)OC (racemic) [1-230] | 3 (Herbicidal rate of 40% or more and less than 70%)
4 | CCCC(=O)Oc1c(C)nn(C)c(=O)c1-c1c(-c2ccc(OCC)cc2)sc2ccccc12 [1-014] | 5 (Herbicidal rate of 90% or more (almost completely withered))
5 | CCCC(=O)Oc1c(C)nn(C)c(=O)c1-c1c(-c2ccc(OC)c(OC)c2)sc2ccccc12 [1-073] | 5 (Herbicidal rate of 90% or more (almost completely withered))
6 | CCCC(=O)Oc1c(C)nn(C)c(=O)c1-c1c(-c2ccc3c(c2)OCCO3)sc2ccccc12 [1-090] | 5 (Herbicidal rate of 90% or more (almost completely withered))
7 | Cc1nn(C)c(=O)c(-c2c(-c3cnc4ccccc4c3)sc3ccccc23)c1O [1-108] | 5 (Herbicidal rate of 90% or more (almost completely withered))
8 | CCCC(=O)Oc1c(C)nn(C)c(=O)c1-c1c(-c2ccc(C(C)C)cc2)sc2ccccc12 [1-126] | 4 (Herbicidal rate of 70% or more and less than 90%)
9 | Cc1nn(C)c(=O)c(-c2c(-c3ccc(OCc4ccccc4)cc3)sc3ccccc23)c1O [1-133] | 5 (Herbicidal rate of 90% or more (almost completely withered))
10 | Cc1nn(C)c(=O)c(-c2c(-c3ccc(OCC4CC4(F)F)cc3)sc3ccccc23)c1O (stereo not drawn) [1-138] | 5 (Herbicidal rate of 90% or more (almost completely withered))
11 | CSCCOc1ccc(-c2sc3ccccc3c2-c2c(O)c(C)nn(C)c2=O)cc1 [1-141] | 5 (Herbicidal rate of 90% or more (almost completely withered))
12 | Cc1nn(C)c(=O)c(-c2c(-c3ccc(OCC4CC4)cc3)sc3ccccc23)c1O [1-142] | 5 (Herbicidal rate of 90% or more (almost completely withered))
13 | Cc1nn(C)c(=O)c(-c2c(-c3ccc(OCCC(F)(F)F)cc3)sc3ccccc23)c1O [1-206] | 5 (Herbicidal rate of 90% or more (almost completely withered))
14 | C=C(Br)COc1ccc(-c2sc3ccccc3c2-c2c(O)c(C)nn(C)c2=O)cc1 [1-215] | 5 (Herbicidal rate of 90% or more (almost completely withered))
15 | CSCCSCc1ccc(-c2sc3ccccc3c2-c2c(O)c(C)nn(C)c2=O)cc1 [1-253] | 3 (Herbicidal rate of 40% or more and less than 70%)
16 | Cc1ccc(-c2sc3ccc(F)cc3c2-c2c(O)c(C)nn(C)c2=O)cc1 [2-012] | 5 (Herbicidal rate of 90% or more (almost completely withered))
17 | CCCC(=O)Oc1c(C)nn(C)c(=O)c1-c1c(-c2ccc(C)cc2)sc2ccc(F)cc12 [2-013] | 5 (Herbicidal rate of 90% or more (almost completely withered))
18 | CCCC(=O)Oc1c(C)nn(C)c(=O)c1-c1c(-c2ccc(OC(F)(F)F)cc2)sc2ccc(F)cc12 [2-046] | 5 (Herbicidal rate of 90% or more (almost completely withered))
19 | Cc1nn(C)c(=O)c(-c2c(-c3ccc(OCCF)cc3)sc3ccc(F)cc23)c1O [2-047] | 5 (Herbicidal rate of 90% or more (almost completely withered))
20 | Cc1nn(C)c(=O)c(-c2c(-c3ccc(OCC(F)(F)F)cc3)sc3ccc(F)cc23)c1O [2-049] | 5 (Herbicidal rate of 90% or more (almost completely withered))

Same assay, conditions: 368 g/ha

Row | SMILES | herbicidal effect on E (rice flat sedge), rating 0-5
21 | COCCOc1ccc(-c2sc3ccccc3c2-c2c(O)c(C)nn(C)c2=O)cc1 [1-148] | 5 (Herbicidal rate of 90% or more (almost completely withered))
